The values below come from patent US10344019B2 (priority 2010, dated 2019).

Type in all cases: cell-based
The subject of experiment [1] is HCV 2a Rluc cells (NS5A chimeric genotype 2a JFH-1 replicon with genotype 2a J6 strain NS5A gene, M31 present). Description: HCV replicon reporter assay, genotype 2a J6 (M31 present). The following applies: Hepatitis C virus, read-out: 2a J6. A digest of the protocol:
(§1)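 Renilla luciferase HCV replicon cells: dicistronic 1b Con1, 1a H77 or 2a JFH-1 replicons, or a JFH-1 chimera carrying J6 NS5A (M31 present). Compound in DMSO serial dilutions, 72 h incubation, then lysis and luciferase read. EC50 by non-linear regression.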
Background: A replicon is a self-replicating genome or part of one, used to study replication in cells.

In experiment [2] the test system is HCV 2b Rluc cells (NS5A chimeric genotype 2a JFH-1 replicon with genotype 2b MD2b-1 NS5A gene, M31 present). The experiment in a line: microbe, parasite or virus in culture. The following applies: Hepatitis C virus, read-out: 2b. The procedure, abridged:
(§2)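 Replicon cells stably carrying the listed RLuc-encoding dicistronic replicons were seeded and treated with DMSO serial dilutions of compound (10 mM stocks) diluted into culture medium. After 72 h, cells were lysed and Renilla luciferase activity measured. EC50 was derived by non-linear regression.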

The subject of experiment [3] is HCV 3a RLuc cells (NS5A chimeric genotype 1b Con1 replicon with consensus genotype 3a NS5A gene). Description: microbe, parasite or virus in culture. The following applies: Hepatitis C virus. The procedure, abridged: as §2
Experiment [4] has as its system HCV 4a Rluc cells (NS5A chimeric genotype 1b Con1 replicon with genotype 4a NS5A gene). Description: microbe, parasite or virus in culture. The following applies: Hepatitis C virus, read-out: 4a. The procedure, abridged:
as §2

In experiment [5] the test system is HCV 1a RLuc cells (dicistronic genotype 1a H77 replicon, RLuc reporter). The experiment in a line: microbe, parasite or virus in culture. The following applies: Hepatitis C virus, read-out: 1a. The procedure, abridged: as §1
Experiment [6] deals with HCV 2a JFH-1 Rluc cells (dicistronic genotype 2a JFH-1 replicon, RLuc reporter). The experiment in a line: microbe, parasite or virus in culture. The following applies: Hepatitis C virus, read-out: 2a JFH. A digest of the protocol:
as §1

Experiment [7] concerns HCV 1b RLuc cells (dicistronic genotype 1b Con1 replicon, RLuc reporter). Description: microbe, parasite or virus in culture. The following applies: Hepatitis C virus, read-out: 1b (nM). A digest of the protocol:
as §1

Experiment [8] concerns Q30R in genotype 1a NS5A, 1a Rluc replicon transfected into Huh-7 cured-51 cells. Description: HCV replicon assay, resistance mutant 1a Q30R. The following applies: Hepatitis C virus, Huh-7, read-out: 1a Q30R. The procedure, abridged:
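Cells were Huh-7 cured-51 transfected with replicon RNA of a genotype 1a H77 RLuc replicon carrying site-directed Q30R in NS5A.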

The mark [9] stands for this setting: read-out: 3a, genotype 3a NS5A chimeric replicon.
[10] abbreviates: genotype 2a JFH-1 RLuc replicon.
The mark [11] stands for this setting: read-out: 3a, genotype 3a replicon.

Read-outs that look alike come from different tables or passages of the source.

As for `COC[C@H]1C[C@@H](c2nc3ccc4cc(-c5ccc(-c6cnc([C@@H]7CCCN7C(=O)[C@@H](NC(=O)OC)C(C)C)[nH]6)cc5OC(F)F)ccc4c3[nH]2)N(C(=O)[C@H](NC(=O)OC)c2ccccc2)C1` [Example 567], the EC50 was 0.001 to 0.999 nM in experiment [1]; 0.001 to 0.999 nM in experiment [2]; 0.001 to 0.99 nM in experiment [3] (setting [9]); 0.001 to 0.99 nM in experiment [4]; 0.001 to 0.999 nM in experiment [5] (genotype 1a H77 RLuc replicon); 0.001 to 0.999 nM in experiment [6] (setting [10]). Moreover, the EC50 in experiment [7] was 0.007 nM; in experiment [8], 0.001 to 0.999 nM.

In the case of `COC[C@H]1C[C@@H](c2nc3ccc4cc5c(cc4c3[nH]2)OCc2cc(-c3cnc([C@@H]4CC[C@H](C)N4C(=O)[C@@H](NC(=O)OC)C(C)C)[nH]3)ccc2-5)N(C(=O)[C@@H](NC(=O)OC)C(C)C)C1` [Example 561], the EC50 in experiment [1] was 0.001 to 0.999 nM; in experiment [2] it was 0.001 to 0.999 nM; in experiment [3] (setting [9]) it was 0.001 to 0.99 nM; in experiment [4], 0.001 to 0.99 nM; in experiment [5] (genotype 1a H77 RLuc replicon) it was 0.001 to 0.999 nM; in experiment [6] (setting [10]) it was 0.001 to 0.999 nM. In addition, the EC50 in experiment [7] was 0.01 nM; in experiment [8], 0.001 to 0.999 nM.

As for `COC(=O)N[C@H](C(=O)N1[C@H]2CC[C@H](C2)[C@H]1c1nc2ccc3cc(-c4ccc5c(ccc6nc([C@@H]7CCCN7C(=O)[C@H](NC(=O)OC)c7ccccc7)[nH]c65)c4)ccc3c2[nH]1)C(C)C` [Example 430], the EC50 lay within 0.001 to 0.999 nM in experiment [1]; 0.001 to 0.999 nM in experiment [2]; 0.001 to 0.99 nM in experiment [3] (setting [11]); 0.001 to 0.99 nM in experiment [4]; 0.001 to 0.999 nM in experiment [5] (genotype 1a replicon); 0.001 to 0.999 nM in experiment [6] (genotype 2a JFH-1 replicon). The EC50 is 0.036 nM in experiment [7] and 1 to 44 nM in experiment [8].

Turning to `COCC(=O)N[C@@H](C(=O)N1C[C@@H](COC)C[C@H]1c1nc2ccc3cc(-c4ccc5c(ccc6nc([C@@H]7C[C@H](C)CN7C(=O)[C@@H](NC(=O)OC)C(C)C)[nH]c65)c4)ccc3c2[nH]1)c1ccccc1` [Example 550], the EC50 in experiment [1] fell in the range of 0.001 to 0.999 nM; in experiment [2], 0.001 to 0.999 nM; in experiment [3] (setting [9]), 0.001 to 0.99 nM; in experiment [4], 0.001 to 0.99 nM; in experiment [5] (genotype 1a H77 RLuc replicon), 0.001 to 0.999 nM; in experiment [6] (setting [10]) it was 0.001 to 0.999 nM. The EC50 in experiment [7] was 0.013 nM; in experiment [8], 0.001 to 0.999 nM.

Consider `CC#Cc1cc2nc([C@@H]3CCCN3C(=O)[C@@H](NC(=O)OC)C(C)C)[nH]c2c2ccc(-c3ccc4c(ccc5nc([C@@H]6C[C@H](COC)CN6C(=O)[C@H](NC(=O)OC)c6ccccc6)[nH]c54)c3)cc12` [Example 581], for which the EC50 in experiment [1] is 0.001 to 0.999 nM; in experiment [2], 0.001 to 0.999 nM; in experiment [3] (setting [9]), 0.001 to 0.99 nM; in experiment [4], 0.001 to 0.99 nM; in experiment [5] (genotype 1a H77 RLuc replicon), 0.001 to 0.999 nM; in experiment [6] (setting [10]) it was 0.001 to 0.999 nM. Also, the EC50 is 0.007 nM in experiment [7] and 0.001 to 0.999 nM in experiment [8].

For the compound `COC(=O)N[C@H](C(=O)N1[C@@H]2C[C@@H]2C[C@H]1c1ncc(-c2cc3c4c(c2)OCc2cc(-c5cnc([C@@H]6C[C@H]7C[C@H]7N6C(=O)[C@@H](NC(=O)OC)C(C)C)[nH]5)cc(c2-4)OC3)[nH]1)C(C)C` [Example 414], the EC50 in experiment [1] is 1 to 44 nM; in experiment [2], 1 to 44 nM; in experiment [3] (setting [11]), 0.001 to 0.99 nM; in experiment [4], 0.001 to 0.99 nM; in experiment [5] (genotype 1a replicon), 0.001 to 0.999 nM; in experiment [6] (genotype 2a JFH-1 replicon), 0.001 to 0.999 nM. Also, the EC50 is 0.022 nM in experiment [7] and 1 to 44 nM in experiment [8].

Turning to `COC[C@H]1C[C@@H](c2nc3ccc4cc(-c5ccc6c(ccc7nc([C@@H]8C[C@H](C)CN8C(=O)[C@@H](NC(=O)OC)C(C)C)[nH]c76)c5)ccc4c3[nH]2)N(C(=O)[C@@H](NC(=O)OC)[C@@H](C)OC)C1` [Example 559], the EC50 in experiment [1] is 0.001 to 0.999 nM; in experiment [2], 0.001 to 0.999 nM; in experiment [3] (setting [9]), 0.001 to 0.99 nM; in experiment [4], 0.001 to 0.99 nM; in experiment [5] (genotype 1a H77 RLuc replicon) it was 0.001 to 0.999 nM; in experiment [6] (setting [10]), 0.001 to 0.999 nM. The EC50 was 0.08 nM in experiment [7] and 0.001 to 0.999 nM in experiment [8].

For the compound `COC[C@H]1C[C@@H](c2nc3ccc4cc(-c5ccc6c(ccc7nc([C@@H]8C[C@H]9C[C@H]9N8C(=O)[C@@H](NC(=O)OC)C(C)C)[nH]c76)c5)ccc4c3[nH]2)N(C(=O)[C@H](NC(=O)OC)c2ccccc2)C1` [Example 472], the EC50 lay in the range of 0.001 to 0.999 nM in experiment [1]; 0.001 to 0.999 nM in experiment [2]; 0.001 to 0.99 nM in experiment [3] (setting [11]); 0.001 to 0.99 nM in experiment [4]; 0.001 to 0.999 nM in experiment [5] (genotype 1a replicon); 0.001 to 0.999 nM in experiment [6] (genotype 2a JFH-1 replicon). For the same compound, the EC50 in experiment [7] is 0.01 nM; in experiment [8], 0.001 to 0.999 nM.

`COC(=O)N[C@@H](C(=O)N1CCC[C@H]1c1ncc(-c2cc3c4c(c2)OCc2cc(-c5cnc([C@@H]6CCCN6C(=O)[C@H](NC(=O)OC)c6ccccc6)[nH]5)cc(c2-4)OC3)[nH]1)c1ccccc1` [Example 25d]: the EC50 in experiment [1] is 0.001 to 0.999 nM; in experiment [2], 0.001 to 0.999 nM; in experiment [3] (read-out: 3a, Table 1, genotype 3a NS5A chimeric replicon) it was 0.001 to 0.99 nM; in experiment [4], 0.001 to 0.99 nM; in experiment [5] (72 h, Table 1, genotype 1a H77 replicon, 72 hours), 0.001 to 0.999 nM; in experiment [6] (72 h, Table 1, genotype 2a JFH-1 replicon, 72 hours) it was 0.001 to 0.999 nM. For the same compound, the figures for the EC50 in experiment [7] (72 h) and in experiment [8] were 0.048 nM and 0.001 to 0.999 nM, respectively.

As for `COC(=O)N[C@H](C(=O)N1CCC[C@H]1c1nc2ccc3cc(-c4ccc5c(ccc6nc([C@@H]7[C@H]8CC[C@H](C8)N7C(=O)[C@@H](NC(=O)OC)C(C)C)[nH]c65)c4)ccc3c2[nH]1)C(C)C` [Example 63], the EC50 in experiment [1] was 1 to 44 nM; in experiment [2], greater than 44 nM; in experiment [3] (read-out: 3a, Table 2, genotype 3a NS5A chimeric replicon), 0.001 to 0.99 nM; in experiment [4], 0.001 to 0.99 nM; in experiment [5] (72 h, Table 2, genotype 1a H77 replicon, 72 hours) it was 0.001 to 0.999 nM; in experiment [6] (72 h, Table 2, genotype 2a JFH-1 replicon, 72 hours), 0.001 to 0.999 nM. Also, the EC50 in experiment [7] (72 h) is 0.019 nM; in experiment [8] it was 1 to 44 nM.

As for `COC(=O)N[C@H](C(=O)N1C[C@@H](C)C[C@H]1c1ncc(-c2ccc3c(c2)COc2cc4c(ccc5nc([C@@H]6C[C@H](C)CN6C(=O)[C@H](NC(=O)OC)c6ccccc6)[nH]c54)cc2-3)[nH]1)C(C)C` [Example 582], the EC50 lay within 0.001 to 0.999 nM in experiment [1]; 0.001 to 0.999 nM in experiment [2]; 0.001 to 0.99 nM in experiment [3] (setting [9]); 0.001 to 0.99 nM in experiment [4]; 0.001 to 0.999 nM in experiment [5] (genotype 1a H77 RLuc replicon); 0.001 to 0.999 nM in experiment [6] (setting [10]). The EC50 is 0.01 nM in experiment [7] and 0.001 to 0.999 nM in experiment [8].

`COC(=O)N[C@H](C(=O)N1CCC[C@H]1c1nc2ccc3cc4c(cc3c2[nH]1)OCc1cc(-c2cnc([C@@H]3CCCN3C(=O)[C@H](NC(=O)C3CC3)c3ccccc3)[nH]2)ccc1-4)C(C)C` [Example 498]: the EC50 in experiment [1] was 0.001 to 0.999 nM; in experiment [2] it was 0.001 to 0.999 nM; in experiment [3] (setting [9]), 0.001 to 0.99 nM; in experiment [4], 0.001 to 0.99 nM; in experiment [5] (genotype 1a H77 RLuc replicon), 0.001 to 0.999 nM; in experiment [6] (setting [10]), 0.001 to 0.999 nM. Further, the figures for the EC50 in experiment [7] and in experiment [8] were 0.016 nM and 0.001 to 0.999 nM, respectively.

For the compound `COC(=O)N[C@H](C(=O)N1CCC[C@H]1c1nc2ccc3cc4c(cc3c2[nH]1)OCc1cc(-c2cnc([C@@H]3CCCN3C(=O)[C@H](NC(=O)OC)c3ccccc3)[nH]2)ccc1-4)C(C)C` [Example 426], the EC50 fell in the range of 0.001 to 0.999 nM in experiment [1]; 0.001 to 0.999 nM in experiment [2]; 0.001 to 0.99 nM in experiment [3] (setting [11]); 0.001 to 0.99 nM in experiment [4]; 0.001 to 0.999 nM in experiment [5] (genotype 1a replicon); 0.001 to 0.999 nM in experiment [6] (genotype 2a JFH-1 replicon). For the same compound, the EC50 in experiment [7] was 0.033 nM; in experiment [8], 0.001 to 0.999 nM.
